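Interpolation was linear, between the two tested concentrations surrounding the appropriate level; five concentrations were tested over 48 hours in 96-well plates. At the GI50, growth is halved. TGI is the concentration that stops growth completely.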
How the values were obtained:
Test in all cases: inhibition of tumour cell growth, NCI panel, 48 h
ACHN renal = test system: ACHN renal
CAKI-1 renal = test system: CAKI-1 renal
CCRF-CEM leukemia = test system: CCRF-CEM leukemia
HS 578T breast = test system: HS 578T breast
HT29 colon = test system: HT29 colon
KM12 colon = test system: KM12 colon
MDA-MB-435 = test system: MDA-MB-435
MOLT-4 leukemia = test system: MOLT-4 leukemia
OVCAR-8 ovarian = test system: OVCAR-8 ovarian
SN12C renal = test system: SN12C renal

SMILES | TGI (ACHN renal) [µM] | TGI (CAKI-1 renal) [µM] | TGI (CCRF-CEM leukemia) [µM] | TGI (HS 578T breast) [µM] | TGI (HT29 colon) [µM] | TGI (KM12 colon) [µM] | TGI (MDA-MB-435) [µM] | TGI (MOLT-4 leukemia) [µM] | TGI (OVCAR-8 ovarian) [µM] | TGI (SN12C renal) [µM] | GI50 (ACHN renal) [µM] | GI50 (CAKI-1 renal) [µM] | GI50 (CCRF-CEM leukemia) [µM] | GI50 (HS 578T breast) [µM] | GI50 (HT29 colon) [µM] | GI50 (KM12 colon) [µM] | GI50 (MDA-MB-435) [µM] | GI50 (MOLT-4 leukemia) [µM] | GI50 (OVCAR-8 ovarian) [µM] | GI50 (SN12C renal) [µM]
CCOc1cc(NC(C)=O)ccc1C(=O)NN1C(=O)CSC1c1ccc(O)c(OC)c1 (stereo unspecified) | > 100 | > 100 | > 100 | > 100 | > 100 | > 100 | > 100 | > 100 | > 100 | > 100 | – | – | – | – | – | – | – | – | – | –
CN(C)CCC(C(=O)C(C)(C)C)c1ccccn1 (stereo unspecified) | > 100 | > 100 | > 100 | > 100 | > 100 | > 100 | > 100 | – | > 100 | > 100 | – | – | – | – | – | – | – | – | – | –
C[C@]12CC[C@H](O)CC1=CC[C@@H]1[C@@H]2CC[C@]2(C)C(=O)CC[C@@H]12 | > 100 | > 100 | – | 97.9 | > 100 | > 100 | > 100 | > 100 | > 100 | > 100 | – | – | – | – | – | – | – | – | – | –
C=CCC1=CC2(OC)C(=O)C(OC)(OC)C1C1C(OC)(OC)C(=O)C(OC)=CC12CC=C (stereo unspecified) | > 100 | > 100 | > 100 | > 100 | > 100 | > 100 | > 100 | > 100 | > 100 | > 100 | – | – | – | – | – | – | – | – | – | –
CO[C@]12C[C@H](CNC(=O)c3cc(Br)c(Br)[nH]3)O[C@H]1NC(=O)N2 | > 100 | > 100 | > 100 | > 100 | > 100 | > 100 | > 100 | > 100 | > 100 | > 100 | – | – | – | – | – | – | – | – | – | –
CC(O)=NC(Cc1ccc2ccccc2c1)C(O)=NC(Cc1ccc(Cl)cc1)C(O)=NC(Cc1c[nH]c2ccccc12)C(O)=NC(CO)C(O)=NC(Cc1ccc(O)cc1)C(O)=NC(CCCN=C(N)N)C(O)=NC(CC(C)C)C(O)=NC(CCCN=C(N)N)C(=O)N1CCCC1C(O)=NC(C)C(=N)O (stereo unspecified) | > 100 | > 100 | > 100 | > 100 | > 100 | > 100 | > 100 | > 100 | > 100 | > 100 | – | – | – | – | – | – | – | – | – | –
NC(N)=N/N=C/c1ccc(O)c(C(=O)O)c1 | > 100 | > 100 | > 100 | > 100 | > 100 | > 100 | > 100 | > 100 | > 100 | – | – | – | – | – | – | – | – | – | – | –
COc1ccc(-n2cc(-c3ccc(OC)c(OC)c3)nc2SCc2ccccc2)cc1Cl | > 100 | > 100 | 31.2 | > 100 | > 100 | 68.1 | > 100 | > 100 | > 100 | > 100 | 38.9 | 41.7 | 0.857 | 25.3 | 17 | 21.3 | 27.8 | 21.2 | 25.9 | 38.1
COc1cc(NCc2ccc3n2-c2ccccc2OC3)cc(OC)c1OC | > 100 | 74.5 | 44.3 | > 100 | > 100 | > 100 | 33.8 | – | > 100 | 45.5 | – | – | – | – | – | – | – | – | – | –
Oc1ccc2ccccc2c1Cc1c(O)ccc2ccccc12 | 33.8 | 33.9 | 45.8 | 34.4 | 46.5 | 43.9 | 31.5 | 36.9 | 36.9 | 34.6 | – | – | – | – | – | – | – | – | – | –
